Source: the OligoGym collection
These antisense oligonucleotides have a phosphorothioate backbone; sugars and methylation of C are not fully specified.

Key:
Settings in all cases: ASO
SUMO1 = biological target: SUMO1
RHOG = biological target: RHOG
IL15 = biological target: IL15
IKBKB = biological target: IKBKB
Further: test concentration or dose not given here.

Sequence: AAACAATAATGAATAATG
- remaining target (mRNA or protein) (fraction of control) (SUMO1): ≥ 1

Sequence: CGCGAGTGCCTGGCCCTG
- remaining target (mRNA or protein) (fraction of control) (RHOG): 0.91

Sequence: ATTTAGGTAAGCTACTCT
- remaining target (mRNA or protein) (fraction of control) (IL15): 0.75

Sequence: ATAATGGTATGGAGGAAG
- remaining target (mRNA or protein) (fraction of control) (IL15): 0.6

Sequence: GGGTGTCAGGCTGGGCTC
- remaining target (mRNA or protein) (fraction of control) (RHOG): 0.85

Sequence: CGCACGTTCTCATAGGAC
- remaining target (mRNA or protein) (fraction of control) (RHOG): 0.76

Sequence: ATGATTCTTTGAGTTTCT
- remaining target (mRNA or protein) (fraction of control) (SUMO1): 0.59

Sequence: AACTGTGTGGAAAGCTGG
- remaining target (mRNA or protein) (fraction of control) (RHOG): 0.92

Sequence: CTCAGCTGGAAGAAGGCG
- remaining target (mRNA or protein) (fraction of control) (IKBKB): 0.4

Sequence: AGCTGGATGAACTGGTCA
- remaining target (mRNA or protein) (fraction of control) (RHOG): 0.77

Sequence: CTTTGGAGTTAGTCATTA
- remaining target (mRNA or protein) (fraction of control) (SUMO1): ≥ 1

Sequence: ACCACATTACAAAAGAAC
- remaining target (mRNA or protein) (fraction of control) (SUMO1): ≥ 1

Sequence: CCCCTTCCCGACAGCACA
- remaining target (mRNA or protein) (fraction of control) (SUMO1): 0.92

Sequence: GACAACAGTCTTCTCATC
- remaining target (mRNA or protein) (fraction of control) (IKBKB): 0.77

Sequence: GTAGCGCACAGCGTGGAT
- remaining target (mRNA or protein) (fraction of control) (RHOG): 0.65

Sequence: ACGTTGGTCTGAGGGTAG
- remaining target (mRNA or protein) (fraction of control) (RHOG): 0.62

Sequence: GATAAACTTCAATCACAT
- remaining target (mRNA or protein) (fraction of control) (SUMO1): ≥ 1

Sequence: ATTCTCTGACCCTCAAAG
- remaining target (mRNA or protein) (fraction of control) (SUMO1): ≥ 1

Sequence: CATTCGAGGTAGCGCACA
- remaining target (mRNA or protein) (fraction of control) (RHOG): 0.61

Sequence: TTAGCTGCATCCCAAAAT
- remaining target (mRNA or protein) (fraction of control) (IL15): 0.48

Sequence: TTCATTGGAACACCCTGT
- remaining target (mRNA or protein) (fraction of control) (SUMO1): 0.32

Sequence: CACAGGGTAGGTGTGGAT
- remaining target (mRNA or protein) (fraction of control) (IKBKB): 0.6

Sequence: CCACAGTTCAGTTCTCTG
- remaining target (mRNA or protein) (fraction of control) (SUMO1): 0.34

Sequence: TTTAATCTTTACAATAAT
- remaining target (mRNA or protein) (fraction of control) (IL15): ≥ 1

Sequence: CGTGAAACTCTGGTCTTG
- remaining target (mRNA or protein) (fraction of control) (IKBKB): 0.48

Sequence: ACACCATCCTGTTGCAGG
- remaining target (mRNA or protein) (fraction of control) (RHOG): 0.77

Sequence: ATTCACCTTCCTTCTTAT
- remaining target (mRNA or protein) (fraction of control) (SUMO1): 0.55

Sequence: ATTAGAAGACAAACTGTT
- remaining target (mRNA or protein) (fraction of control) (IL15): ≥ 1

Sequence: AGGCATTAGTAGAGTAAA
- remaining target (mRNA or protein) (fraction of control) (IL15): 0.92

Sequence: GCGCGCTGTAATTGTCGA
- remaining target (mRNA or protein) (fraction of control) (RHOG): 0.64

Sequence: AAGAAGTGTTGATGAACA
- remaining target (mRNA or protein) (fraction of control) (IL15): 0.83

Sequence: TTGTGTAGCAGATGAGCA
- remaining target (mRNA or protein) (fraction of control) (RHOG): 0.65

Sequence: GGCAGTGCCTCCTCTCTC
- remaining target (mRNA or protein) (fraction of control) (RHOG): 0.65

Sequence: ACTCAAAGGCCAGGGTGC
- remaining target (mRNA or protein) (fraction of control) (IKBKB): 0.59

Sequence: GAGGGCAGAGGTTAGAGA
- remaining target (mRNA or protein) (fraction of control) (RHOG): 0.79

Sequence: CCACCACGCACTTGATGC
- remaining target (mRNA or protein) (fraction of control) (RHOG): 0.86

Sequence: CAGCAGGATGGGCACATC
- remaining target (mRNA or protein) (fraction of control) (RHOG): 0.8

Sequence: CAATGGAGAAACAGATGA
- remaining target (mRNA or protein) (fraction of control) (RHOG): ≥ 1

Sequence: GTCAGCAAATGCGTAAGG
- remaining target (mRNA or protein) (fraction of control) (RHOG): 0.76

Sequence: TCTTCTGGACCCCTCTGG
- remaining target (mRNA or protein) (fraction of control) (RHOG): 0.64

Sequence: TCCTGTACAGCTCCCTTG
- remaining target (mRNA or protein) (fraction of control) (IKBKB): 0.13

Sequence: TTCAAGATATGAACCAGC
- remaining target (mRNA or protein) (fraction of control) (IKBKB): 0.54

Sequence: AGACATGAATGCCAGCTT
- remaining target (mRNA or protein) (fraction of control) (IL15): 0.26

Sequence: ATATTACTCAATGACATT
- remaining target (mRNA or protein) (fraction of control) (IL15): ≥ 1

Sequence: ACACAAGTAGCACTGGAT
- remaining target (mRNA or protein) (fraction of control) (IL15): 0.43

Sequence: GTTCCATTCAAGTCTTCG
- remaining target (mRNA or protein) (fraction of control) (IKBKB): 0.78

Sequence: TTGTTATGTCTAAGCAGC
- remaining target (mRNA or protein) (fraction of control) (IL15): 0.47

Sequence: CTGAGTGGCAGGCTTATC
- remaining target (mRNA or protein) (fraction of control) (IKBKB): 0.28

Sequence: CTTCGCTAACAACAATGT
- remaining target (mRNA or protein) (fraction of control) (IKBKB): ≥ 1

Sequence: TGGAGAAGGGAGAGAGCA
- remaining target (mRNA or protein) (fraction of control) (RHOG): 0.68

Sequence: CTGTCCCAAGGCGCTCTT
- remaining target (mRNA or protein) (fraction of control) (IKBKB): 0.42

Sequence: AGTGAAATAACTTGTAAC
- remaining target (mRNA or protein) (fraction of control) (IL15): ≥ 1

Sequence: GTGCAGTTGCTGTAGTGA
- remaining target (mRNA or protein) (fraction of control) (RHOG): 0.9

Sequence: GGGTGAACATCACTTTCC
- remaining target (mRNA or protein) (fraction of control) (IL15): 0.43

Sequence: TGTACGGAGGCGGTCATA
- remaining target (mRNA or protein) (fraction of control) (RHOG): 0.63

Sequence: ACTCTAGGCCCATAGCAA
- remaining target (mRNA or protein) (fraction of control) (IL15): 0.58

Sequence: GGGAAGGTGACCAGCTCA
- remaining target (mRNA or protein) (fraction of control) (IKBKB): 0.3

Sequence: TGTAAGTCCACAATGTCG
- remaining target (mRNA or protein) (fraction of control) (IKBKB): 0.61

Sequence: TTCTCATTACTCAAAGCC
- remaining target (mRNA or protein) (fraction of control) (IL15): 0.87

Sequence: GTTAGGTGCTTTGGGCCA
- remaining target (mRNA or protein) (fraction of control) (IL15): 0.13

Sequence: CTTCTGCTTGCAAACCAC
- remaining target (mRNA or protein) (fraction of control) (IKBKB): 0.82

Sequence: TCATCTTCTTGACAGAAA
- remaining target (mRNA or protein) (fraction of control) (IL15): ≥ 1

Sequence: ACTTCTGCTGCTCCAGTA
- remaining target (mRNA or protein) (fraction of control) (IKBKB): 0.58

Sequence: AGTTTATCTGATGTGATC
- remaining target (mRNA or protein) (fraction of control) (IKBKB): 0.8

Sequence: AAAAGAAAGGGAGGGAAT
- remaining target (mRNA or protein) (fraction of control) (IL15): ≥ 1

Sequence: CTTTTAATAAGCACTCTA
- remaining target (mRNA or protein) (fraction of control) (IL15): ≥ 1

Sequence: ACAGCCTCGGCGAACACT
- remaining target (mRNA or protein) (fraction of control) (RHOG): 0.94

Sequence: GTCAGTAGCGGAAAATGG
- remaining target (mRNA or protein) (fraction of control) (RHOG): ≥ 1

Sequence: CCCTGCTGCGGTGTGATG
- remaining target (mRNA or protein) (fraction of control) (RHOG): 0.56

Sequence: GCCCTGCACTGAAACAGC
- remaining target (mRNA or protein) (fraction of control) (IL15): 0.39
